Source: patent US4145554A, “3-Nitropyrazole derivatives” (Eli Lilly and Company, priority 1977, dated 1979)
≈ marks a conversion by molar mass, not a printed value. Like-named read-outs stand apart in the source and are kept apart here.

Key:
Mycoplasma gallisepticum = experiment: in vitro tube dilution test (MIC); assay type: cell-based; conditions: Mycoplasmoides gallisepticum
Excerpt: (§1) Our compound, 1-(2-hydroxyethyl)-3-nitro-4-pyrazolecarboxamide, has been extensively tested in vitro to determine the range of microorganisms against which it is active. The table of data below reports the minimum inhibitory concentration (MIC) at which the compound is effective in controlling a variety of microorganisms in a standard tube dilution test system. The MIC is reported as micrograms of compound per milliliter.
(§2) Other compounds of our invention have also been tested in the tube dilution test and shown to have in vitro activity against a number of microorganisms. The table below reports tests of a number of exemplary compounds against exemplary microorganisms. The compounds are identified by their numbers in the listing above. The data are reported as the MIC in micrograms per milliliter against the named exemplary microorganisms.

Escherichia coli = experiment: in vitro tube dilution test (MIC); assay type: cell-based
Excerpt: as §1, §2

Streptococcus sp. 80 = experiment: in vitro tube dilution test (MIC); assay type: cell-based
Excerpt: as §2

Salmonella typhimurium = experiment: Salmonellosis in chickens, single injection to day-old chicks; assay type: in vivo; conditions: for responders at 60 mg/kg: Salmonella enterica, TYPHIMURIUM, 168 h; for chicks protected of the 5-bird treated group: salmonella challenge
Protocol: A number of our 3-nitropyrazoles have been tested against an induced infection of Salmonella typhimurium in day-old chicks. The test was conducted by administering a single injection of 60 mg./kg. of the compounds to each of five chicks. The following day, the chicks were challenged by the subcutaneous injection of a dispersion of S. typhimurium organisms sufficient to kill most or all of the untreated control chicks.
Some of the compounds were tested more than once, in which instances the data are reported as the total survivors from the multiple treatment groups. Untreated, challenged control groups of chicks were tested together with each batch of groups of chicks to which test compounds were administered. Since the mortality of the untreated control chicks varied somewhat from one group of tests to another, results of the untreated control groups are reported below with each test.

Vibrio coli 3811 = experiment: in vitro tube dilution test (MIC); assay type: cell-based; conditions: Campylobacter coli
Excerpt: (§3) The other preferred compounds of our invention have also been thoroughly tested in the in vitro tube dilution test.
as §2

[1] = tested on: Staphylococcus aureus sp. 1130; experiment: in vitro tube dilution test (MIC); assay type: cell-based
Excerpt: as §3, §2

Salmonella dublin = experiment: in vitro tube dilution test (MIC); assay type: cell-based; conditions: Salmonella enterica
Excerpt: as §3, §2

Pasteurella multocida = experiment: in vitro tube dilution test (MIC); assay type: cell-based
Excerpt: as §1, §3, §2

Streptococcus pyogenes = experiment: Tests in mice, Streptococcus pyogenes infection; assay type: in vivo; conditions: S. pyogenes; for Days Survived: two subcutaneous doses of 83 mg./kg., 1 and 5 hours; for ED50: Streptococcus pyogenes, sc, subcutaneous, 1 and 5 hours post-inoculation
Protocol: (§4) Groups of laboratory mice were inoculatd with E. coli or with Streptococcus pyogenes. The 3-nitropyrazoles were administered in two different modes to the infected mice. In one group of tests, the compound was administered in two subcutaneous doses of 83 mg./kg. each, given 1 and 5 hours after the mice were inoculated with the organism. The mice were observed, and the results reported below as the number of days the treated mice survived the challenge.
(§5) In the other group of tests, the dose of each compound which allowed 50 percent of the treated mice to survive the challenge was determined. Again, the compound was administered in subcutane divided doses, 1 and 5 hours post-inoculation.

E. coli = experiment: Tests in mice, E. coli infection; assay type: in vivo; conditions: for Days Survived: two subcutaneous doses of 83 mg./kg., 1 and 5 hours
Protocol: as §4, §5

[2] = Mycoplasma gallisepticum, tube dilution, read-out: MIC
[3] = Streptococcus sp. 80, tube dilution, read-out: MIC
[4] = single injection of 60 mg./kg., seven days, read-out: Survival (converted)
[5] = Vibrio coli 3811, tube dilution, read-out: MIC
[6] = Staphylococcus aureus sp. 1130, tube dilution, read-out: MIC
[7] = Salmonella dublin, tube dilution, read-out: MIC

Row | Structure (SMILES) | MIC (Mycoplasma gallisepticum; [2]) [µg/mL] | MIC (Escherichia coli; tube dilution, read-out: MIC) [µg/mL] | MIC (Streptococcus sp. 80; [3]) [µg/mL] | MIC (Vibrio coli 3811; [5]) [µg/mL] | MIC [1, 6] [µg/mL] | MIC (Salmonella dublin; [7]) [µg/mL] | MIC (Pasteurella multocida; tube dilution, read-out: MIC) [µg/mL] | responders at 60 mg/kg (Salmonella typhimurium; [4]) [%] | also measured
1 | CC(=O)Cn1cc(C(N)=O)c([N+](=O)[O-])n1 [Compound 9, 1-(2-oxopropyl)-3-nitro-4-pyrazolecarboxamide] | > 50 | 12.5 (≈ 58.9 µM) | 50 (≈ 236 µM) | 6.25 (≈ 29.5 µM) | 6.25 (≈ 29.5 µM) | 6.25 (≈ 29.5 µM) | > 50 | 100 | 
2 | NC(=O)c1cn(Cc2ccccc2)nc1[N+](=O)[O-] [Compound 18, 1-benzyl-3-nitro-4-pyrazolecarboxamide] | 6.25 (≈ 25.4 µM) | 12.5 (≈ 50.8 µM) | 50 (≈ 203 µM) | 50 (≈ 203 µM) | 6.25 (≈ 25.4 µM) | 12.5 (≈ 50.8 µM) | 12.5 (≈ 50.8 µM) | 70 | 
3 | N#Cc1cn(CCCl)nc1[N+](=O)[O-] [Compound 33, 1-(2-chloroethyl)-3-nitro-4-pyrazolecarbonitrile] | > 50 | 100 (≈ 499 µM) | 100 (≈ 499 µM) | 12.5 (≈ 62.3 µM) | 100 (≈ 499 µM) | 100 (≈ 499 µM) |  | 80 | 
4 | CCS(=O)(=O)CCn1cc(C(N)=O)c([N+](=O)[O-])n1 [Compound 35, 1-(2-ethylsulfonylethyl)-3-nitro-4-pyrazolecarboxamide] | > 50 | 50 (≈ 181 µM) | 25 (≈ 90.5 µM) | 50 (≈ 181 µM) | 3.12 (≈ 11.3 µM) | 50 (≈ 181 µM) | 6.25 (≈ 22.6 µM) | 80 | Days Survived (Streptococcus pyogenes): 7.0 days; ED50 (Streptococcus pyogenes): 36.2 mg/kg; Days Survived (E. coli): 1.0 days
5 | NC(=O)c1cn(CCCl)nc1[N+](=O)[O-] [Compound 52, 1-(2-chloroethyl)-3-nitro-4-pyrazolecarboxamide] | > 50 | 3.12 (≈ 14.3 µM) | 50 (≈ 229 µM) | 25 (≈ 114 µM) | > 1.56 | 3.12 (≈ 14.3 µM) | 12.5 (≈ 57.2 µM) | 80 | 
6 | N#Cc1cn(CCO)nc1[N+](=O)[O-] [Compound 55, 1-(2-hydroxyethyl)-3-nitro-4-pyrazolecarbonitrile] |  | 12.5 (≈ 68.6 µM) | 50 (≈ 275 µM) |  | 6.25 (≈ 34.3 µM) | 6.25 (≈ 34.3 µM) |  | 80 | 
7 | NC(=O)c1cn(C2C=CC(n3cc(C(N)=O)c([N+](=O)[O-])n3)C=C2)nc1[N+](=O)[O-] (stereo not drawn) [Compound 59, 1,1'-(2,5-cyclohexadien-1,4-ylene)-bis(3-nitro-4-pyrazolecarboxamide)] |  |  |  |  |  |  |  |  | MIC (Mycoplasma gallisepticum): 3.12 µg/mL (≈ 8.04 µM); MIC (Escherichia coli): 3.12 µg/mL (≈ 8.04 µM); MIC (Streptococcus sp. 80; Streptococcus, SP.80): > 50 µg/mL; chicks protected of the 5-bird treated group (Salmonella typhimurium): at least three chicks of the 5-bird treated group; MIC (Vibrio coli 3811; 3811): 12.5 µg/mL (≈ 32.2 µM); MIC ([1]; Staphylococcus aureus, SP.1130): 1.56 µg/mL (≈ 4.02 µM); MIC (Salmonella dublin): 3.12 µg/mL (≈ 8.04 µM); MIC (Pasteurella multocida): 3.12 µg/mL (≈ 8.04 µM)
8 | CNC(=O)c1cn(C)nc1[N+](=O)[O-] [Compound 61, N,1-dimethyl-3-nitro-4-pyrazolecarboxamide] | 12.5 (≈ 67.9 µM) | 50 (≈ 272 µM) | 50 (≈ 272 µM) |  | 50 (≈ 272 µM) | 50 (≈ 272 µM) |  | 70 | Days Survived (Streptococcus pyogenes): 1.0 days; ED50 (Streptococcus pyogenes): > 83 mg/kg; ED50 (E. coli; Escherichia coli, sc, subcutaneous, 1 and 5 hours post-inoculation): 68 mg/kg
9 | NC(=O)c1cn(CCCO)nc1[N+](=O)[O-] [Compound 62, 1-(3-hydroxypropyl)-3-nitro-4-pyrazolecarboxamide] | 1.56 (≈ 7.28 µM) | 6.25 (≈ 29.2 µM) | 50 (≈ 233 µM) | 12.5 (≈ 58.4 µM) | 50 (≈ 233 µM) | 3.12 (≈ 14.6 µM) | 6.25 (≈ 29.2 µM) | 70 | 
10 | NC(=O)c1cn(CCCCl)nc1[N+](=O)[O-] [Compound 63, 1-(3-chloropropyl)-3-nitro-4-pyrazolecarboxamide] | 6.25 (≈ 26.9 µM) | 50 (≈ 215 µM) | > 50 | 25 (≈ 107 µM) | 50 (≈ 215 µM) | 12.5 (≈ 53.7 µM) | 25 (≈ 107 µM) | 40 | 
11 | CC(C)n1cc(C(N)=O)c([N+](=O)[O-])n1 [Compound 64, 1-isopropyl-3-nitro-4-pyrazolecarboxamide] | 50 (≈ 252 µM) | 25 (≈ 126 µM) | > 50 | > 50 | 50 (≈ 252 µM) | 12.5 (≈ 63.1 µM) | 50 (≈ 252 µM) | 60 | 
12 | CC(C)NC(=O)c1cn(CCO)nc1[N+](=O)[O-] [Compound 88, 1-(2-hydroxyethyl)-N-isopropyl-3-nitro-4-pyrazolecarboxamide] | 3.12 (≈ 12.9 µM) | 50 (≈ 206 µM) | > 50 | 50 (≈ 206 µM) | > 50 | > 50 | 6.25 (≈ 25.8 µM) |  | Days Survived (Streptococcus pyogenes): 2.0 days; Days Survived (E. coli): 4.8 days
13 | NC(=O)OCCn1cc(C(N)=O)c([N+](=O)[O-])n1 [Compound 93, [2-(4-carbamoyl-3-nitropyrazol-1-yl)ethyl] carbamate] | 12.5 (≈ 51.4 µM) | 12.5 (≈ 51.4 µM) | 6.25 (≈ 25.7 µM) | 50 (≈ 206 µM) | 3.12 (≈ 12.8 µM) | 6.25 (≈ 25.7 µM) | < 1.56 |  | responders at 60 mg/kg (Salmonella typhimurium; read-out: Survival): 100%

The next lines start with results.

Row | MIC (Mycoplasma gallisepticum; [2]) [µg/mL] | MIC (Escherichia coli; tube dilution, read-out: MIC) [µg/mL] | MIC (Streptococcus sp. 80; [3]) [µg/mL] | MIC (Vibrio coli 3811; [5]) [µg/mL] | MIC [1, 6] [µg/mL] | MIC (Salmonella dublin; [7]) [µg/mL] | MIC (Pasteurella multocida; tube dilution, read-out: MIC) [µg/mL] | Structure (SMILES) | responders at 60 mg/kg (Salmonella typhimurium; [4]) [%] | also measured
14 | 50 (≈ 191 µM) | 50 (≈ 191 µM) | 25 (≈ 95.3 µM) | > 50 | 25 (≈ 95.3 µM) | > 50 | 12.5 (≈ 47.7 µM) | CS(=O)(=O)CCn1cc(C(N)=O)c([N+](=O)[O-])n1 [Compound 66, 1-[2-(methylsulfonyl)ethyl]-3-nitro-4-pyrazolecarboxamide] | 40 | 
15 | > 50 | 50 (≈ 238 µM) | > 50 | 12.5 (≈ 59.5 µM) | 12.5 (≈ 59.5 µM) | 25 (≈ 119 µM) | 25 (≈ 119 µM) | CC=CCn1cc(C(N)=O)c([N+](=O)[O-])n1 [Compound 75, 1-(2-butenyl)-3-nitro-4-pyrazolecarboxamide] | 60 | 
16 | 25 (≈ 91.8 µM) | 50 (≈ 184 µM) | 50 (≈ 184 µM) | 50 (≈ 184 µM) | 50 (≈ 184 µM) | 50 (≈ 184 µM) | 50 (≈ 184 µM) | CCOC(Cn1cc(C(N)=O)c([N+](=O)[O-])n1)OCC [Compound 82, 1-(2,2-diethoxyethyl)-3-nitro-4-pyrazolecarboxamide] | 80 | 
17 | 50 (≈ 233 µM) | > 50 | > 50 | 25 (≈ 116 µM) | > 50 | > 50 | > 50 | N#Cc1cn(CCCCl)nc1[N+](=O)[O-] [Compound 83, 1-(3-chloropropyl)-3-nitro-4-pyrazolecarbonitrile] | 80 | 
18 | 50 (≈ 238 µM) | 50 (≈ 238 µM) | 50 (≈ 238 µM) | 25 (≈ 119 µM) | 50 (≈ 238 µM) | 50 (≈ 238 µM) | 25 (≈ 119 µM) | CCOCCn1cc(C#N)c([N+](=O)[O-])n1 [Compound 84, 1-(2-ethoxyethyl)-3-nitro-4-pyrazolecarbonitrile] | 80 | 
19 | 3.12 (≈ 12.2 µM) | > 50 | > 50 | 50 (≈ 195 µM) | > 50 | > 50 | > 50 | CCCCNC(=O)c1cn(CCO)nc1[N+](=O)[O-] [Compound 85, N-butyl-1-(2-hydroxyethyl)-3-nitro-4-pyrazolecarboxamide] |  | chicks protected of the 5-bird treated group (Salmonella typhimurium): at least three chicks of the 5-bird treated group
20 | 25 (≈ 95 µM) | 6.25 (≈ 23.8 µM) | > 50 | 25 (≈ 95 µM) | < 1.56 | 3.12 (≈ 11.9 µM) | 12.5 (≈ 47.5 µM) | NC(=O)c1cn(CCBr)nc1[N+](=O)[O-] [Compound 96, 1-(2-bromoethyl)-3-nitropyrazole-4-carboxamide] | 100 | 
21 | 12.5 (≈ 55.3 µM) | 12.5 (≈ 55.3 µM) | 50 (≈ 221 µM) | 12.5 (≈ 55.3 µM) | 6.25 (≈ 27.6 µM) | 12.5 (≈ 55.3 µM) |  | Cn1cc(-c2nnc(N)s2)c([N+](=O)[O-])n1 [Compound 102, 2-amino-5-(1-methyl-3-nitro-4-pyrazolyl)-1,3,4-thiadiazole] |  | chicks protected of the 5-bird treated group (Salmonella typhimurium): at least three chicks of the 5-bird treated group
